Values quoted from earlier work in US20110207823A1, “12-HOUR SUSTAINED-RELEASE METOCLOPRAMIDE” (POSIVISIONARY SOLUTIONS LLP, priority 2008, published 2011).

Details: immediate release dosages

For `CCN(CC)CCNC(=O)c1cc(Cl)c(N)cc1OC` [metoclopramide, Metoclopramide], the “metoclopramide peaks in plasma with undesirable side effects (akathisia)” value is listed as “above 100 nanograms per milliliter”.
